# In US9409884B2 (Rigel Pharmaceuticals, Inc., priority 2012, dated 2016):
# Target: AMPK
# Experiment: AMPK activation, enzyme-linked immunosorbent assay
# Format: biochemical
# Settings: Table 13, compounds of Table 6
# Outline: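 AMPK activation by test compounds was measured by enzyme-linked immunosorbent assay.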
row,SMILES,EC50 [nM]
1,"COc1ccc(CN2CCC(C(=O)Nc3ccc4oc(C(=O)NC5CCN(Cc6ccc(C#N)cc6)CC5)cc4c3)CC2)cc1 [Compound 6-40, N-(2-(1-(4-cyanobenzyl)piperidin-4-ylcarbamoyl)benzofuran-5-yl)-1-(4-methoxybenzyl)piperidine-4-carboxamide]",1000 to 10000
2,"N#Cc1ccc(CN2CCC(NC(=O)c3cc4cc(NC(=O)C5CCN(Cc6cnn(-c7ccccn7)c6)CC5)ccc4o3)CC2)cc1 [Compound 6-41, N-(2-(1-(4-cyanobenzyl)piperidin-4-ylcarbamoyl)benzofuran-5-yl)-1-((1-(pyridin-2-yl)-1H-pyrazol-4-yl)methyl)piperidine-4-carboxamide]",1000 to 10000
3,"N#Cc1ccc(CN2CCC(NC(=O)c3cc4cc(NC(=O)C5CCN(Cc6cnn(-c7ccc(C#N)cc7)c6)CC5)ccc4o3)CC2)cc1 [Compound 6-42, N-(2-(1-(4-cyanobenzyl)piperidin-4-ylcarbamoyl)benzofuran-5-yl)-1-((1-(4-cyanophenyl)-1H-pyrazol-4-yl)methyl)piperidine-4-carboxamide]",1000 to 10000
4,"Cc1nnsc1C(=O)Nc1ccc2oc(C(=O)NC3CCN(Cc4ccc(C#N)cc4)CC3)cc2c1 [Compound 6-56, N-(2-(1-(4-cyanobenzyl)piperidin-4-ylcarbamoyl)benzofuran-5-yl)-4-methyl-1,2,3-thiadiazole-5-carboxamide]",1000 to 10000
5,"N#Cc1ccc(CN2CCC(NC(=O)c3cc4cc(NC(=O)c5ccc(-c6nnc[nH]6)cc5)ccc4o3)CC2)cc1 [Compound 6-60, 5-(4-(4H-1,2,4-triazol-3-yl)benzamido)-N-(1-(4-cyanobenzyl)piperidin-4-yl)benzofuran-2-carboxamide]",1000 to 10000
6,"N#Cc1ccc(CN2CCC(NC(=O)c3cc4cc(NC(=O)c5ccc(Oc6ccc(F)cc6)nc5)ccc4o3)CC2)cc1 [Compound 6-64, N-(2-(1-(4-cyanobenzyl)piperidin-4-ylcarbamoyl)benzofuran-5-yl)-6-(4-fluorophenoxy)nicotinamide]",100 to 1000
7,"N#Cc1ccc(CN2CCC(NC(=O)c3cc4cc(NC(=O)c5ccc(-n6cccn6)cc5)ccc4o3)CC2)cc1 [Compound 6-65, 5-(4-(1H-pyrazol-1-yl)benzamido)-N-(1-(4-cyanobenzyl)piperidin-4-yl)benzofuran-2-carboxamide]",100 to 1000
8,"N#Cc1ccc(CN2CCC(NC(=O)c3cc4cc(NC(=O)c5cnn(-c6ccc(F)cc6)c5)ccc4o3)CC2)cc1 [Compound 6-66, N-(2-(1-(4-cyanobenzyl)piperidin-4-ylcarbamoyl)benzofuran-5-yl)-1-(4-fluorophenyl)-1H-pyrazole-4-carboxamide]",100 to 1000
9,"N#Cc1ccc(CC(=O)Nc2ccc3oc(C(=O)NC4CCN(Cc5ccc(C#N)cc5)CC4)cc3c2)cc1 [Compound 6-67, N-(1-(4-cyanobenzyl)piperidin-4-yl)-5-(2-(4-cyanophenyl)acetamido) benzofuran-2-carboxamide]",1000 to 10000
10,"N#Cc1ccc(CN2CCC(NC(=O)c3cc4cc(NC(=O)c5ccc(N6CCCC6)cc5)ccc4o3)CC2)cc1 [Compound 6-68, N-(1-(4-cyanobenzyl)piperidin-4-yl)-5-(4-(pyrrolidin-1-yl)benzamido)benzofuran-2-carboxamide]",100 to 1000

# More lines, now with the values ahead:
row,EC50 [nM],SMILES
1,< 100,"O=C(NC1CCN(Cc2cc(F)cc(F)c2)CC1)c1cc2cc(CN3CCC(Oc4ccc(C(F)(F)F)cc4)CC3)ccc2o1 [Compound 6-28, N-(1-(3,5-difluorobenzyl)piperidin-4-yl)-5-((4-(4-(trifluoromethyl)phenoxy)piperidin-1-yl)methyl) benzofuran-2-carboxamide]"
2,< 100,"O=C(Nc1ccc(Oc2ccc(F)cc2)nc1)c1cc2cc(CN3CCC(Oc4ccc(C(F)(F)F)cc4)CC3)ccc2o1 [Compound 6-29, N-(6-(4-fluorophenoxy)pyridin-3-yl)-5-((4-(4-(trifluoromethyl)phenoxy)piperidin-1-yl)methyl) benzofuran-2-carboxamide]"
3,100 to 1000,"N#Cc1ccc(CN2CCC(NC(=O)c3cc4cc(NC(=O)C5CCN(Cc6ccc(F)c(F)c6)CC5)ccc4o3)CC2)cc1 [Compound 6-43, N-(2-(1-(4-cyanobenzyl)piperidin-4-ylcarbamoyl)benzofuran-5-yl)-1-(3,4-difluorobenzyl)piperidine-4-carboxamide]"
4,100 to 1000,"N#Cc1ccc(CN2CCC(NC(=O)c3cc4cc(NC(=O)C5CCN(Cc6ccc(OC(F)(F)F)cc6)CC5)ccc4o3)CC2)cc1 [Compound 6-46, N-(2-(1-(4-cyanobenzyl)piperidin-4-ylcarbamoyl)benzofuran-5-yl)-1-(4-(trifluoromethoxy)benzyl) piperidine-4-carboxamide]"
5,100 to 1000,"N#Cc1ccc(CN2CCC(NC(=O)c3cc4cc(NC(=O)C5CCN(Cc6ccc(C#N)c(F)c6)CC5)ccc4o3)CC2)cc1 [Compound 6-48, 1-(4-cyano-3-fluorobenzyl)-N-(2-(1-(4-cyanobenzyl)piperidin-4-ylcarbamoyl)benzofuran-5-yl)piperidine-4-carboxamide]"
6,100 to 1000,"N#Cc1ccc(CN2CCC(NC(=O)c3cc4cc(NC(=O)C5CCN(Cc6ccc(C#N)cc6)CC5)ccc4o3)CC2)cc1 [Compound 6-49, l-(4-cyanobenzyl)-N-(2-(l-(4-cyanobenzyl)piperidin-4-ylcarbamoyl)benzofiiran-5-yl)piperidine-4-carbox amide]"
7,100 to 1000,"N#Cc1ccc(CN2CCC(NC(=O)c3cc4cc(NC(=O)C5CCN(Cc6ccc(C(F)(F)F)cc6)CC5)ccc4o3)CC2)cc1 [Compound 6-50, N-(2-(1-(4-cyanobenzyl)piperidin-4-ylcarbamoyl)benzofuran-5-yl)-1-(4-(trifluoromethyl)benzyl) piperidine-4-carboxamide]"
8,100 to 1000,"N#Cc1ccc(CN2CCC(NC(=O)c3cc4cc(NC(=O)Cc5ccc(C(F)(F)F)cc5)ccc4o3)CC2)cc1 [Compound 6-54, N-(1-(4-cyanobenzyl)piperidin-4-yl)-5-(2-(4-(trifluoromethyl)phenyl)acetamido)benzofuran-2-carboxamide]"
9,100 to 1000,N#Cc1ccc(CN2CCC(NC(=O)c3cc4cc(NC(=O)c5ccc(C#N)cc5)ccc4o3)CC2)cc1 [Compound 6-57]
10,100 to 1000,"COc1ccc(-n2cc(C(=O)Nc3ccc4oc(C(=O)NC5CCN(Cc6ccc(C#N)cc6)CC5)cc4c3)cn2)cc1 [Compound 6-59, N-(2-(1-(4-cyanobenzyl)piperidin-4-ylcarbamoyl)benzofuran-5-yl)-1-(4-methoxyphenyl)-1H-pyrazole-4-carboxamide]"
11,100 to 1000,"Cc1cc(C(=O)Nc2ccc3oc(C(=O)NC4CCN(Cc5ccc(C#N)cc5)CC4)cc3c2)no1 [Compound 6-61, N-(2-(1-(4-cyanobenzyl)piperidin-4-ylcarbamoyl)benzofuran-5-yl)-5-methylisoxazole-3-carboxamide]"
12,< 100,"N#Cc1ccc(CN2CCC(NC(=O)c3cc4cc(NC(=O)[C@H]5CC[C@@H](Oc6ccc(C#N)cc6)CC5)ccc4o3)CC2)cc1 [Compound 6-69, N-(1-(4-cyanobenzyl)piperidin-4-yl)-5-((1s,4s)-4-(4-cyanophenoxy)cyclohexanecarboxamido) benzofuran-2-carboxamide]"
13,< 100,"N#Cc1ccc(CN2CCC(NC(=O)c3cc4cc(NC(=O)C5CCN(c6ccc(C#N)cn6)CC5)ccc4o3)CC2)cc1 [Compound 6-70, N-(2-(1-(4-cyanobenzyl)piperidin-4-ylcarbamoyl)benzofuran-5-yl)-1-(5-cyanopyridin-2-yl)piperidine-4-carboxamide]"
